Experimental data reported in the supplement of paper PMC10307832.

Columns and labels:
Assay in all cases: relative viability (nuclei count vs DMSO), 5 days (fraction); higher = more cells survive
[1] = system: HOP-62
Outline: (§1)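 A single step with final 0.05% Triton X-100, 1% formaldehyde and 1 ug/ml Hoechst fixed the cells and stained nuclei 5 days after treatment. Lung cancer cell lines in 1536-well plates had been treated by pin tool the day after seeding with one drug alone or a fixed anchor-drug dose plus five library-drug doses (not always all listed) in √10 steps, and nuclei were counted on 4× images. Relative viability is the ratio of nuclei in treated wells to nuclei in vehicle wells, taken as the median of duplicate plates.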

[2] = system: LXF-289
Outline: as §1

[3] = system: LC-2-ad
Outline: as §1

[4] = system: NCI-H2342
Outline: as §1

[5] = system: NCI-H1755
Outline: as §1

[6] = system: HCC-15
Outline: as §1

[7] = system: RERF-LC-KJ
Outline: as §1

[8] = system: NCI-H1975
Outline: as §1

[9] = system: NCI-H2126
Outline: as §1

[10] = system: A-427
Outline: as §1

[11] = system: SK-LU-1
Outline: as §1

[12] = system: NCI-H1915
Outline: as §1

[13] = system: NCI-H358
Outline: as §1

[14] = system: SW 1573
Outline: as §1

[15] = system: NCI-H2228
Outline: as §1

[16] = system: NCI-H1734
Outline: as §1

[17] = system: NCI-H1792
Outline: as §1

[18] = system: PC-3 [JPC-3]
Outline: as §1

[19] = system: NCI-H647
Outline: as §1

[20] = system: NCI-H522
Outline: as §1

[21] = system: NCI-H2347
Outline: as §1

Nc1ccn([C@@H]2O[C@H](CO)[C@@H](O)[C@@H]2O)c(=O)n1 [Cytarabine] + CCNC(=O)c1noc(-c2cc(C(C)C)c(O)cc2O)c1-c1ccc(CN2CCOCC2)cc1 [Luminespib] (partner 0.01 µM)
relative viability ([1]; first compound 0.005 µM): 0.679 | relative viability ([1]; first compound 0.01581 µM): 0.49 | relative viability ([1]; first compound 0.05 µM): 0.285 | relative viability ([1]; first compound 0.1581 µM): 0.135 | relative viability ([1]; first compound 0.5 µM): 0.135 | relative viability ([2]; first compound 0.005 µM): 0.673 | relative viability ([2]; first compound 0.01581 µM): 0.665 | relative viability ([2]; first compound 0.05 µM): 0.43 | relative viability ([2]; first compound 0.1581 µM): 0.266 | relative viability ([2]; first compound 0.5 µM): 0.149 | relative viability ([3]; first compound 0.005 µM): 0.892 | relative viability ([3]; first compound 0.01581 µM): 0.994 | relative viability ([3]; first compound 0.05 µM): 0.768 | relative viability ([3]; first compound 0.1581 µM): 0.636 | relative viability ([3]; first compound 0.5 µM): 0.478 | relative viability ([4]; first compound 0.005 µM): 0.597 | relative viability ([4]; first compound 0.01581 µM): 0.723 | relative viability ([4]; first compound 0.05 µM): 0.642 | relative viability ([4]; first compound 0.1581 µM): 0.462 | relative viability ([4]; first compound 0.5 µM): 0.444 | relative viability ([5]; first compound 0.005 µM): 0.879 | relative viability ([5]; first compound 0.01581 µM): 0.222 | relative viability ([5]; first compound 0.05 µM): 0.328 | relative viability ([5]; first compound 0.1581 µM): 0.274 | relative viability ([5]; first compound 0.5 µM): 0.378 | relative viability ([6]; first compound 0.005 µM): 0.328 | relative viability ([6]; first compound 0.01581 µM): 0.416 | relative viability ([6]; first compound 0.05 µM): 0.354 | relative viability ([6]; first compound 0.1581 µM): 0.428 | relative viability ([6]; first compound 0.5 µM): 0.267 | relative viability ([7]; first compound 0.005 µM): 0.968 | relative viability ([7]; first compound 0.01581 µM): 1.04 | relative viability ([7]; first compound 0.05 µM): 0.977 | relative viability ([7]; first compound 0.1581 µM): 0.38 | relative viability ([7]; first compound 0.5 µM): 0.416 | relative viability ([8]; first compound 0.005 µM): 0.536 | relative viability ([8]; first compound 0.01581 µM): 0.316 | relative viability ([8]; first compound 0.05 µM): 0.193 | relative viability ([8]; first compound 0.1581 µM): 0.209 | relative viability ([8]; first compound 0.5 µM): 0.171 | relative viability ([9]; first compound 0.005 µM): 0.789 | relative viability ([9]; first compound 0.01581 µM): 0.86 | relative viability ([9]; first compound 0.05 µM): 0.671 | relative viability ([9]; first compound 0.1581 µM): 0.53 | relative viability ([9]; first compound 0.5 µM): 0.427 | relative viability ([10]; first compound 0.005 µM): 0.708 | relative viability ([10]; first compound 0.01581 µM): 0.425 | relative viability ([10]; first compound 0.05 µM): 0.238 | relative viability ([10]; first compound 0.1581 µM): 0.186 | relative viability ([10]; first compound 0.5 µM): 0.161 | relative viability ([11]; first compound 0.005 µM): 0.178 | relative viability ([11]; first compound 0.01581 µM): 0.183 | relative viability ([11]; first compound 0.05 µM): 0.214 | relative viability ([11]; first compound 0.1581 µM): 0.185 | relative viability ([11]; first compound 0.5 µM): 0.185 | relative viability ([12]; first compound 0.005 µM): 0.622 | relative viability ([12]; first compound 0.01581 µM): 0.773 | relative viability ([12]; first compound 0.05 µM): 0.871 | relative viability ([12]; first compound 0.1581 µM): 0.486 | relative viability ([12]; first compound 0.5 µM): 0.435 | relative viability ([13]; first compound 0.005 µM): 0.338 | relative viability ([13]; first compound 0.01581 µM): 0.582 | relative viability ([13]; first compound 0.05 µM): 0.34 | relative viability ([13]; first compound 0.1581 µM): 0.144 | relative viability ([13]; first compound 0.5 µM): 0.181 | relative viability ([14]; first compound 0.005 µM): 0.375 | relative viability ([14]; first compound 0.01581 µM): 0.228 | relative viability ([14]; first compound 0.05 µM): 0.285 | relative viability ([14]; first compound 0.1581 µM): 0.164 | relative viability ([14]; first compound 0.5 µM): 0.0905 | relative viability ([15]; first compound 0.005 µM): 0.141 | relative viability ([15]; first compound 0.01581 µM): 0.121 | relative viability ([15]; first compound 0.05 µM): 0.141 | relative viability ([15]; first compound 0.1581 µM): 0.116 | relative viability ([15]; first compound 0.5 µM): 0.12 | relative viability ([16]; first compound 0.005 µM): 0.251 | relative viability ([16]; first compound 0.01581 µM): 0.162 | relative viability ([16]; first compound 0.05 µM): 0.138 | relative viability ([16]; first compound 0.1581 µM): 0.139 | relative viability ([16]; first compound 0.5 µM): 0.134 | relative viability ([17]; first compound 0.01581 µM): 0.431 | relative viability ([17]; first compound 0.05 µM): 0.366 | relative viability ([17]; first compound 0.1581 µM): 0.313 | relative viability ([17]; first compound 0.5 µM): 0.271 | relative viability ([18]; first compound 0.005 µM): 0.754 | relative viability ([18]; first compound 0.01581 µM): 0.73 | relative viability ([18]; first compound 0.05 µM): 0.782 | relative viability ([18]; first compound 0.1581 µM): 0.453 | relative viability ([18]; first compound 0.5 µM): 0.551 | relative viability ([19]; first compound 0.005 µM): 0.146 | relative viability ([19]; first compound 0.01581 µM): 0.111 | relative viability ([19]; first compound 0.05 µM): 0.112 | relative viability ([19]; first compound 0.1581 µM): 0.0665 | relative viability ([19]; first compound 0.5 µM): 0.0757 | relative viability ([20]; first compound 0.005 µM): 1.09 | relative viability ([20]; first compound 0.01581 µM): 0.953 | relative viability ([20]; first compound 0.05 µM): 0.968 | relative viability ([20]; first compound 0.1581 µM): 0.422 | relative viability ([20]; first compound 0.5 µM): 0.438 | relative viability ([21]; first compound 0.005 µM): 0.284 | relative viability ([21]; first compound 0.01581 µM): 0.402 | relative viability ([21]; first compound 0.05 µM): 0.39 | relative viability ([21]; first compound 0.1581 µM): 0.255 | relative viability ([21]; first compound 0.5 µM): 0.411
